Experimental data: US8697151B2, “Use of an extract from the vigna aconitifolia plant in a cosmetic and/or dermopharmaceutical composition” (BASF Beauty Care Solutions France S.A.S., priority 2001, dated 2014)

Tested on: epidermal cell renewal
Test: Epidermal cell renewal in vivo by the dihydroxyacetone test (DHA test)
Set-up: species or system human
Settings: for Development of luminescence (D15-D9) / Luminescence (AU) at D 15: 12 volunteers; for Luminescence (AU) at D 15: D15, 6 days after removal of the plasters, 3 mg/cm^2 daily; for Development of luminescence (D15-D9) % referring to control area: Wilcoxon T Test not significant
Protocol: Comparative in vivo tests were conducted to determine the accelerated epidermal cell renewal activity using 5 emulsions containing 0.2% by weight or 0.5% by weight vitamin A palmitate, 3% by weight or 5% by weight VITOPTINE® (extract of Vigna aconitifolia, Lab. Sero., Pulnoy) versus placebo.
Phase A and phase B were heated to 75° C. The aqueous phase was added to the fatty phase with continuous stirring and cooled to 60° C. by continued stirring. The combined phases were then homogenized for 2 mins. with an Ultraturrax. Finally, the active component is added with stirring and the whole is cooled to room temperature.
The study was carried out as a double blind study involving 12 female volunteers aged between 18 and 55 years.
The measurement parameter was the intensity of tanning of the skin after pigmenting with dihydroxyacetone. The decreasing tanning intensity corresponds to an increase in the renewal of the stratum corneum and the rate of the epidermal cell renewal cycle.
Eight areas (two groups of four) on the inside of the lower forearm were selected: • control area untreated and unpigmented by DHA, • area treated with placebo cream, • area treated with cream containing vitamin A palmitate • area treated with cream containing VITOPTINE®.
A standardized and randomized pretreatment with 3 mg/cm^2 of a preparation was carried out daily for 7 days. After the pretreatment, on day 8, DHA in the form of a face and body tanning lotion containing 5% by weight DHA was applied to the control and treated areas by an occlusive standardized process. On day 9, the occlusive plasters were removed. This was followed for another 6 days (days 10 to 15) by the same treatment as on days 1 to 7. The color intensity of the skin was determined immediately after removal of the plasters and 6 days later by colorimetric measurements (Minolta chromameter) via luminescence.
The first calculation (D15-D9) allowed evaluation of the development between day 9 (removal of the occlusive plasters) and day 15 (6 days after removal of the occlusive plasters). This development is representative of the epidermal cell renewal cycle. The greater the value, the higher the epidermal cell renewal.

## CCCCCCCCCCCCCCCC(=O)OC/C=C(C)/C=C/C=C(C)/C=C/C1=C(C)CCCC1(C)C [vitamin A palmitate]
Cream containing 0.2%
  Development of luminescence (D15-D9): 3.53
  Luminescence (AU) at D 15: 62.18 AU
  Development of luminescence (D15-D9) % referring to control area: 32 (ns) %
Cream containing 0.5%
  Development of luminescence (D15-D9): 3.79
  Luminescence (AU) at D 15: 62.44 AU
  Development of luminescence (D15-D9) % referring to control area: 41 (ns) %
